What follows are compounds tested against EGFR (UniProt P00533).
EGFR, sequence (P00533 whole entry, looked up): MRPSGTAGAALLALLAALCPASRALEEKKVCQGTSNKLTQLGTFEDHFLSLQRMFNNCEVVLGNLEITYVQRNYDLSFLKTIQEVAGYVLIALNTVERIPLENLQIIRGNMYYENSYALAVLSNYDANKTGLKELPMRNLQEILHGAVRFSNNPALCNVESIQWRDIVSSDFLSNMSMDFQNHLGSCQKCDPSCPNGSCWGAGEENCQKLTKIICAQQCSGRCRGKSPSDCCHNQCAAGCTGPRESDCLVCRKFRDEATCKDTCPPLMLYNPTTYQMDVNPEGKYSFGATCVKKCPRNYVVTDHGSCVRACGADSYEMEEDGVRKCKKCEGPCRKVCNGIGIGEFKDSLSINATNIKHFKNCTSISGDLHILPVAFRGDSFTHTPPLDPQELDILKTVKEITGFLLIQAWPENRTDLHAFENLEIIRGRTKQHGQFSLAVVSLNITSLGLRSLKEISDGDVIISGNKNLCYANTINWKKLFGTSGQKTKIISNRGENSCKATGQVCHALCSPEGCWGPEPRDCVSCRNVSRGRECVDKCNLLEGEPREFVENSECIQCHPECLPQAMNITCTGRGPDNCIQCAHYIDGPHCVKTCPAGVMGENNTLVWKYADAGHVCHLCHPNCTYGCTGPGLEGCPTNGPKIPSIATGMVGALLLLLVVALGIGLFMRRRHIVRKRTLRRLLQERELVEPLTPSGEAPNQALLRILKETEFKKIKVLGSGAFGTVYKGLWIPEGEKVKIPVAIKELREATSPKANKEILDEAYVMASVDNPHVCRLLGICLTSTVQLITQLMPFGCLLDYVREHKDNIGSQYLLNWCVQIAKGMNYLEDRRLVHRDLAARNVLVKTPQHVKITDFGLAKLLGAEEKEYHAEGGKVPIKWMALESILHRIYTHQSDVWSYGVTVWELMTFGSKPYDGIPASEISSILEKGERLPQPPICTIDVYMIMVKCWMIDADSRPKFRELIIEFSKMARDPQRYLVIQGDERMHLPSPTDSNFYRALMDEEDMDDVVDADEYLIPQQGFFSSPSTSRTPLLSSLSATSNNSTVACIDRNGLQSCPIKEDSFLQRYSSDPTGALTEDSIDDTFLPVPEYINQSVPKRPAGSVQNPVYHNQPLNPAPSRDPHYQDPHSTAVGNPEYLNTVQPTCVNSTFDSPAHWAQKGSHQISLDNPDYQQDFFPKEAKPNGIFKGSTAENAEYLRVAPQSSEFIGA

IC50 [nM]	Compound
< 50	COc1cc2c(Nc3cc(Cl)c(Cl)cc3F)ncnc2cc1OCC1CN(C)C(C)(C)CO1 (stereo unspecified)
< 50	COc1cc2c(Nc3ccc(Cl)c(Cl)c3)ncnc2cc1OCC1CN(S(=O)(=O)c2ccccc2)CCO1 (stereo unspecified)
< 50	COc1cc2c(Nc3ccc(Cl)c(Cl)c3F)ncnc2cc1OC[C@H]1CN2CCOC[C@H]2CO1
< 50	CCOc1cc2c(Nc3ccc(Cl)c(Cl)c3)ncnc2cc1OCC1CN(C)CCO1 (stereo unspecified)
< 50	COc1cc2c(Nc3ccc(Br)c(Cl)c3C)ncnc2cc1OCC1CN(C)CCO1 (stereo unspecified)
< 50	COc1cc2c(Nc3ccc(C(F)(F)F)cc3Br)ncnc2cc1O[C@@H]1CO[C@@H]2[C@H]1OC[C@H]2F
< 50	COc1cc2c(Nc3ccc(Cl)cc3F)ncnc2cc1O[C@@H]1CO[C@@H]2[C@H]1OC[C@H]2F
< 50	COc1cc2c(Nc3ccc(Cl)c(Cl)c3)ncnc2cc1OCc1nc(-c2ccc(N3CCCC3)cc2)cs1
< 50	COc1cc2c(Nc3ccc(Cl)c(Cl)c3F)ncnc2cc1OC[C@@H]1CN(C)CC(=O)N1
< 50	COc1cc2c(Nc3ccc(Cl)c(Cl)c3)ncnc2cc1OCC1CN(CCCc2ccccc2)CCO1 (stereo unspecified)
< 50	COc1cc2c(Nc3ccc(Cl)c(Cl)c3)ncnc2cc1OCC1CN2CCOCC2CO1 (stereo unspecified)
< 50	COc1cc2c(Nc3ccc(Cl)c(Cl)c3)ncnc2cc1OCC1CN(C)C(C)(C)C(=O)O1 (stereo unspecified)
< 50	COc1cc2c(Nc3ccc(Br)cc3Cl)ncnc2cc1OCC1CN(C)CCO1 (stereo unspecified)
< 50	COc1cc2c(Nc3ccc(Cl)c(Cl)c3)ncnc2cc1O[C@@H]1CO[C@@H]2[C@H]1OC[C@H]2F
< 50	COc1cc2c(Nc3ccc(Br)c(Cl)c3)ncnc2cc1O[C@@H]1CCOC1
< 50	COc1cc2c(Nc3cccc(Cl)c3C)ncnc2cc1O[C@@H]1CO[C@@H]2[C@H]1OC[C@H]2F
< 50	COc1cc2c(Nc3ccc(Cl)c(Cl)c3)ncnc2cc1OCc1nc(-c2ccccn2)cs1
< 50	COc1cc2c(Nc3ccc(Cl)cc3Cl)ncnc2cc1OCC1CN(C)CCO1 (stereo unspecified)
< 50	COc1cc2c(Nc3ccc(Cl)c(Cl)c3)ncnc2cc1OCC1CN(C(=O)C(C)(C)C)CCO1 (stereo unspecified)

More lines, now with the values behind:

Compound	IC50 [nM]
COc1cc2c(Nc3cccc(Br)c3C)ncnc2cc1O[C@H]1CO[C@H]2[C@@H]1OC[C@@H]2OC	< 50
CN1CCOC(COc2cc3ncnc(Nc4ccc(Cl)c(Cl)c4)c3cc2O)C1 (stereo unspecified)	< 50
COC(=O)CCN1CCOC(COc2cc3ncnc(Nc4ccc(Cl)c(Cl)c4)c3cc2OC)C1 (stereo unspecified)	< 50
COc1cc2c(Nc3ccc(Br)c(Cl)c3)ncnc2cc1O[C@H]1CO[C@@H]2[C@H]1OC[C@@H]2N1CCN(C)CC1	< 50
COc1cc2c(Nc3ccc(Cl)c(Cl)c3)ncnc2cc1OCC1CN(Cc2ccccn2)CCO1 (stereo unspecified)	< 50
COc1cc2c(Nc3ccc(Cl)c(Cl)c3)ncnc2cc1OCC1CN(C(=O)c2cc(F)ccc2F)CCO1 (stereo unspecified)	< 50
COc1cc2c(Nc3ccc(Cl)c(C)c3)ncnc2cc1OCC1CN(C)CCO1 (stereo unspecified)	< 50
C=CCCCN1CCOC(COc2cc3ncnc(Nc4ccc(Cl)c(Cl)c4)c3cc2OC)C1 (stereo unspecified)	< 50
COc1cc2c(Nc3ccc(Cl)c(Cl)c3)ncnc2cc1OCC1CN(CCCCF)CCO1 (stereo unspecified)	< 50
COCCOc1cc2c(Nc3ccc(Cl)c(Cl)c3)ncnc2cc1OCC1CN(C)CCO1 (stereo unspecified)	< 50
COc1cc2c(Nc3ccc(Cl)c(Cl)c3F)ncnc2cc1OC[C@@H]1CN2CCC[C@H]2CO1	< 50
COc1cc2c(Nc3cc(Br)cc(C(F)(F)F)c3)ncnc2cc1O[C@@H]1CO[C@@H]2[C@H]1OC[C@H]2F	< 50
CCN1CCC(c2nc(COc3cc4ncnc(Nc5ccc(Cl)c(Cl)c5)c4cc3OC)cs2)CC1	< 50
COc1cc2c(Nc3ccc(Cl)c(Cl)c3)ncnc2cc1OCCNC1CC2CCC(C1)N2C (stereo unspecified)	< 50
COc1cc2c(Nc3ccc(F)cc3C(F)(F)F)ncnc2cc1O[C@@H]1CO[C@@H]2[C@H]1OC[C@H]2F	< 50
COc1cc2c(Nc3ccc(F)c(Cl)c3F)ncnc2cc1O[C@@H]1CO[C@@H]2[C@H]1OC[C@H]2F	< 50
COc1cc2c(Nc3cccc(Cl)c3)ncnc2cc1O[C@@H]1CO[C@@H]2[C@H]1OC[C@H]2F	< 50

Source: the Kinase Knowledgebase extract (Sharma et al. 2016)
